Test results published in ChEMBL document CHEMBL1135853, “Structure-activity relationships of the peptide deformylase inhibitor BB-3497: modification of the metal binding group” (Bioorg Med Chem Lett, 2002).
Converted amounts (≈) assume the structure as drawn.

Assays:
Staphylococcus capitis = assay: Compound was evaluated for antibacterial activity against Staphylococcus capitis; assay type: functional
Escherichia coli [1] = assay: Compound was evaluated for antibacterial activity against Escherichia coli; assay type: functional
[2] = molecular target: Peptide deformylase (Escherichia coli) (UniProt P0A6K3); assay: Compound was evaluated for inhibition of peptide deformylase, PDF.Ni of Escherichia coli at concentration of 1 uM
Sequence of Peptide deformylase (Escherichia coli) (P0A6K3 whole entry, looked up): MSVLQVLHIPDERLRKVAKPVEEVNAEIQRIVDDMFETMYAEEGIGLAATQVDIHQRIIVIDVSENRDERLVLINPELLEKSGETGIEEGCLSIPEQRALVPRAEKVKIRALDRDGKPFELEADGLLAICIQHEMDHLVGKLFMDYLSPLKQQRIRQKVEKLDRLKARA

Escherichia coli [3] = assay: Compound was evaluated for antibacterial activity against Escherichia coli in the range of 75-100 uM; Exerted a moderate antibacterial effect; assay type: functional

Row | Compound | MIC (Staphylococcus capitis) | MIC (Escherichia coli [1]) | inhibition [2] | MIC (Escherichia coli [3])
1 | CCCCC(CP(=O)(O)O)C(=O)N[C@H](C(=O)N(C)C)C(C)(C)C (stereo partly specified) | > 200 µM | > 200 µM |  | 
2 | CCCCC(C[PH](=O)O)C(=O)N[C@H](C(=O)N(C)C)C(C)(C)C (stereo partly specified) | > 200 µM | > 200 µM |  | 
3 | CCCC[C@H](CC(=O)O)C(=O)N[C@H](C(=O)N(C)C)C(C)(C)C | > 200 µM | > 200 µM |  | 
4 | CCCC[C@H](CN(O)C(N)=O)C(=O)N[C@H](C(=O)N(C)C)C(C)(C)C | > 200 µM | > 200 µM |  | 
5 | CCCC[C@H](CS)C(=O)N[C@H](C(=O)N(C)C)C(C)(C)C | > 200 µM | > 200 µM | 10% | 
6 | CCCC[C@H](CS)C(=O)N[C@@H](CCCCN)C(=O)Nc1ccc([N+](=O)[O-])cc1 |  |  |  | 75 µM (≈ 30.8 µg/mL)

Continued, values first:

Row | MIC (Staphylococcus capitis) | MIC (Escherichia coli [1]) | inhibition [2] | MIC (Escherichia coli [3]) | Compound
7 | > 200 µM | > 200 µM | 20% |  | CCCC[C@H](OC(=O)NO)C(=O)N[C@H](C(=O)N(C)C)C(C)(C)C
8 | > 200 µM | > 200 µM | 40% |  | CCCC[C@H](NC(=O)NO)C(=O)N[C@H](C(=O)N(C)C)C(C)(C)C
9 | > 200 µM | > 200 µM |  |  | CCCCC(CC(=N)NO)C(=O)N[C@H](C(=O)N(C)C)C(C)(C)C (stereo partly specified)
10 | > 200 µM | > 200 µM |  |  | CCCC[C@H](NCC(=O)O)C(=O)N[C@H](C(=O)N(C)C)C(C)(C)C
11 | > 200 µM | > 200 µM |  |  | CCCC[C@H](CC(=O)NN)C(=O)N[C@H](C(=O)N(C)C)C(C)(C)C
12 | > 200 µM | > 200 µM |  |  | CCCC[C@H](CNC=O)C(=O)N[C@H](C(=O)N(C)C)C(C)(C)C
13 | > 200 µM | > 200 µM | 60% |  | CCCC[C@H](CN(O)C(C)=O)C(=O)N[C@H](C(=O)N(C)C)C(C)(C)C
14 | 100 µM (≈ 32.9 µg/mL) | 25 µM (≈ 8.24 µg/mL) |  |  | CCCC[C@H](CC(=O)NO)C(=O)N[C@H](C(=O)N(C)C)C(C)(C)C
